{"source": "patent US12533315B2", "about": "“Compositions comprising at least one ionic liquid, a polypeptide, and at least one non-ionic surfactant for protein delivery” (PRESIDENT AND FELLOWS OF HARVARD COLLEGE, priority 2019, dated 2026)", "key": {"[1]": {"tested_on": "Fab (antihistone H1 antibody fragment; antigen KLH-SSV peptide)", "conditions": "Fab 10 μg/mL in 10 mM phosphate buffer", "quoted_text": "The Fab solution (10 mM phosphate buffer, pH 7.4) was mixed with CAGE (1:2) at the volume ratios of 50%/50% (v/v %), 40%/60% (v/v %), and 30%/70% (v/v %), and the mixed solutions were allowed to stand at room temperature for 1 hour. The Fab solution was prepared to obtain the final concentration of 10 μg/mL.\nThe solution was dialyzed with 10 mM phosphate buffer (pH 7.4) used as the dialysate at room temperature for 48 hours. The dialysate was replaced appropriately during the dialysis. At 48 hours later, the solution thus obtained was stored in a refrigerator at 4° C.\nELISA was conducted according to the method of Chiang et al. [51]. Briefly, 2 μg of KLH-SSV peptide (0.1 M sodium bicarbonate-sodium carbonate buffer, pH 9.6±0.2) were instilled into each well, and the solution was allowed to stand overnight at room temperature. After the removal of the KLH-SSV solution and the washing of each well with PBS (0.05% Tween 20®), 300 μL of SuperBlock Blocking Buffer™ in PBS were added into each well, and the solution was allowed to stand for 1 hour at room temperature. […] At 20 minutes later, SpectraMax i3™ (Molecular Devices) was used to measure absorbance at 405 nm. […]"}, "porcine skin [2]": {"tested_on": "porcine skin", "quoted_text": "(§1) Preparation of FITC-labeled Fab. The Pierce™ FITC Antibody-Labeling Kit (ThermoFisher Scientific) was used to label Fab purchased from Chemical & Scientific Corporation with FITC. Briefly, 925 μL of sterilized water were added into 75 μL of 0.67 M borate buffer that had been attached to the kit, and the labeling buffer (50 mM sodium borate, pH 8.5) was prepared. Lyophilized Fab, 1 mg, was added into 0.5 mL of the labeling buffer and was then melted. The Fab solution, 0.5 mL, was added into the FITC reagent vial that had been attached to the kit and was then pipetted 10 times for the complete melting of the pigment. After the collection of the slightly centrifuged sample solution in the vial's bottom, the reaction was incubated at room temperature for 60 minutes and under light blocking. At 60 minutes later, the column containing the reaction solution was set to the recovery column that had been attached to the kit. Subsequently, 400 μL of the homogeneously suspended purification column suspension solution were added. After centrifugation (about 1,000 μg, 30 to 45 seconds), FITC-labeled Fab was recovered. The amount of antibody labeling was calculated by measuring absorbance at 280 nm and 495 nm according to the following formulae:\n(§2) Preparation of the FITC-labeled Fab-CAGE sample solution. The FITC-Fab solution (50 mM sodium borate, pH 8.5) was mixed with 6 CAGE variants at a volume ratio of 50%/50% (v/v %). Regarding CAGE (1:2), the FITC-Fab solution was mixed at volume ratios of 50%/50% (v/v %), 40%/60% (v/v %), and 30%/70% (v/v %). The mixed solutions were allowed to stand at room temperature for 1 hour. Subsequently, 300 μL of the mixed solutions obtained were used for the porcine skin penetrability test.\n(§3) Preparation of the FITC-labeled Fab-CAGE-polysorbate sample solutions. Polysorbates 40 and 60 were mixed with the FITC-labeled Fab solution (50 mM sodium borate, pH 8.5) to obtain the final concentration of 3%. Subsequently, the resulting solutions were mixed with CAGE (1:2) at the volume ratios of 30%/70% (v/v %) [=30% CAGE (1:2)] or 40%/60% (v/v %) [=40% CAGE (1:2)]. Because of its nature of being solid at room temperature, polysorbate 60 was dissolved by 30-minute warming at 37° C. prior to the addition. Furthermore, the solution was warmed for 10 minutes at 37° C. to completely dissolve polysorbate 60 and was then mixed with CAGE (1:2). The resulting mixed solutions were allowed to stand at room temperature for 1 hour. The final concentration of antibodies was adjusted to 10 μg/mL.\n(§4) Preparation of the porcine skin. In the porcine skin penetrability test, the cryopreserved skin of a WSP was unfrozen at room temperature. A pair of scissors were used to remove hair on the skin surface, followed by washing of the skin surface with PBS. The WSP skin, with the epidermis side upward, was set to the receiver chamber of a longitudinal diffusion cell (diffusion area: 1.77 cm2). The upper portion of the skin was filled with PBS (0.01% sodium azide). A contact gauge of conductivity was used to confirm skin conductivity at 100 Hz. The WSP skin with a resistivity of ≥5.65 kΩ/cm2 only was used in the porcine skin penetrability test based on previous studies [53,54].\n(§5) Skin penetrability test using the porcine skin. The porcine skin was punched in a circle with a 36-mm diameter puncher. Subsequently, the porcine skin, with the epidermis side upward, was set on the receiver chamber of a longitudinal diffusion cell (diffusion area: 1.77 cm2). PBS (0.01% sodium azide, pH 7.4) was added into the interior of the receiver chamber and to the upper portion of the skin via a donor chamber, and the skin was allowed to stand in the incubator at 37° C. for 30 minutes. Meanwhile, the solution of the receiver chamber was stirred gently."}, "[3]": {"tested_on": "Fab (antihistone H1 antibody fragment; antigen KLH-SSV peptide)", "assay": "Deactivation-preventing effect of polysorbates on Fab in CAGE (1:2) (ELISA)", "assay_type": "biochemical", "conditions": "for Fab deactivation-preventing effect, qualitative comparison of polysorbates: 30% and 40% CAGE (1:2), 3% to 10% polysorbate (FIGS. 7A, 7B)", "protocol": "Preparation of the Fab-CAGE (1:2)-polysorbate mixed solutions. […] Unlike other polysorbates, polysorbate 60 only is solid at room temperature.\nThe dialysate was replaced appropriately during the dialysis.\nEach experiment was conducted in triplicate."}, "porcine skin [4]": {"tested_on": "porcine skin", "assay": "Porcine skin penetrability test of FITC-labeled Fab, confocal fluorescence microscopy", "conditions": "for impact on skin penetration of Fab: 3% polysorbate added to CAGE (1:2); for skin penetration of Fab: 3% polysorbate alone, without CAGE", "quoted_text": "as §1, §2, §3, §4, §5"}}, "note": "Entries after “also recorded” stand apart in the source; their conditions may differ."}
{"substance": "Choline And GEranate [CAGE (1:2)]", "values": [{"measurement": "Fab deactivation, dependence on CAGE (1:2) concentration", "setting": "[1]", "value": "deactivated in a concentration dependent manner"}, {"measurement": "ELISA signal (absorbance of undialyzed aqueous Fab solution = 100%)", "setting": "[1]; ≥5% CAGE (1:2), 1 hour room temperature, CAGE removed by dialysis", "value": "about 5%"}, {"measurement": "penetration of Fab into skin in vitro", "setting": "porcine skin [2]", "value": "deep penetration into skin"}, {"measurement": "skin penetration-enhancing effect of Fab", "setting": "porcine skin [2]", "value": "most potent"}]}
{"substance": "polyoxyethylene (20) sorbitan monolaurate [polysorbate 20]", "values": [{"measurement": "Fab deactivation-prevention effect (preventive effect)", "setting": "[3]; 3% polysorbate, 40% CAGE (1:2), Fab 10 μg/mL", "value": "about 50%"}, {"measurement": "Fab deactivation-prevention effect (preventive effect)", "setting": "[3]; 5% polysorbate, 30% CAGE (1:2), Fab 10 μg/mL", "value": "~100", "unit": "%"}, {"measurement": "Fab deactivation-prevention effect (preventive effect)", "setting": "[3]; 8% polysorbate, 30% CAGE (1:2), Fab 10 μg/mL", "value": "~100", "unit": "%"}, {"measurement": "Fab deactivation-prevention effect (preventive effect)", "setting": "[3]; 10% polysorbate, 30% CAGE (1:2), compared with 5% and 8%", "value": "decreased slightly"}, {"measurement": "Fab deactivation-prevention effect (preventive effect)", "setting": "[3]; 10% polysorbate, 40% CAGE (1:2), compared to 3% polysorbate 20", "value": "comparable"}, {"measurement": "Fab deactivation-prevention effect, dependence on polysorbate concentration", "setting": "[3]; 40% CAGE (1:2), polysorbate above 3%", "value": "decreased with increasing polysorbate 20 concentrations"}, {"measurement": "Fab deactivation", "setting": "[3]; 50% CAGE (1:2), polysorbate concentrations other than 8%", "value": "mostly deactivated"}, {"measurement": "Fab deactivation-prevention effect (preventive effect)", "setting": "[3]; ≥3% (v/v) polysorbate, 30% CAGE (1:2), Fab 10 μg/mL", "value": "prevented"}]}
{"substance": "polyoxyethylene (20) sorbitan monooleate [polysorbate 80]", "values": [{"measurement": "Fab deactivation-preventing effect, qualitative comparison of polysorbates", "setting": "[3]", "value": "needs to be at a higher concentration compared to polysorbate 40 and polysorbate 60"}]}
{"substance": "polyoxyethylene (20) sorbitan monopalmitate [polysorbate 40]", "values": [{"measurement": "impact on skin penetration of Fab", "setting": "porcine skin [4]", "value": "do not adversely impact skin penetration of Fab"}, {"measurement": "skin penetration of Fab", "setting": "porcine skin [4]", "value": "did not impact skin penetration of the Fab"}, {"measurement": "Fab deactivation-preventing effect, qualitative comparison of polysorbates", "setting": "[3]", "value": "prevented Fab deactivation at a lower concentration than did polysorbate 20; also recorded: equivalent; also recorded: more effective; also recorded: most potent"}]}
{"substance": "polyoxyethylene (20) sorbitan monostearate [polysorbate 60]", "values": [{"measurement": "impact on skin penetration of Fab", "setting": "porcine skin [4]", "value": "do not adversely impact skin penetration of Fab"}, {"measurement": "skin penetration of Fab", "setting": "porcine skin [4]", "value": "did not induce skin penetration of Fab"}, {"measurement": "skin penetration of FITC-labeled Fab", "setting": "porcine skin [4]; 30% CAGE + 3% polysorbate 60 versus 30% CAGE alone", "value": "Comparable skin penetration"}, {"measurement": "Fab deactivation-prevention effect (preventive effect)", "setting": "[3]; 3% polysorbate, 30% CAGE (1:2), Fab 10 μg/mL", "value": "> 80", "unit": "%"}, {"measurement": "Fab deactivation-preventing effect, qualitative comparison of polysorbates", "setting": "[3]", "value": "equivalent; also recorded: more effective; also recorded: most potent"}]}
